Where a name gives a salt, the structure may show the parent alone.
Experiments:
[1] = Hygroscopicity test by dynamic vapor sorption (DVS); type: physicochemical; conditions: for hygroscopicity: DVS, 25°C, 0%RH to 95%RH
Experimental: The dynamic vapor sorption (DVS) curve was collected on DVS IntrInsic from SMS (surface measurement systems). The relative humidity at 25°C was corrected using the deliquescence points of LiCl, Mg(NO3)2, and KCl. Table 18 DVS test parameters
The percentage change in sample mass was collected under constant temperature at 25°C as humidity varied from 0%RH to 95%RH.

[2] = Dynamic solubility experiment at 37°C (water, SGF, FaSSIF, FeSSIF); conditions: for S: solubility: solid feed 10 mg/mL; for pH: pH value of the filtrate
Experimental: (§2) Rotating mixing was carried out at 37°C at a solid feed concentration of 10 mg/mL (calculated as the compound of Formula I). […] After sampling at each time point, the samples were centrifuged (10000 rpm) and filtered (0.45 µm PTFE filter head), and the HPLC concentration and pH value of the filtrate were measured.
(§3) 100 mg of NaCl and 50 mg of Triton X-100 were weighed into a 50 mL volumetric flask, and purified water was added to complete dissolution. 816 µL of 1 M hydrochloric acid was added thereto, and the pH was adjusted to 1.8 with 1 M hydrochloric acid or 1 M NaOH solution. Purified water was added to make up to volume.
(§4) 340 mg of anhydrous NaH2PO4 and 620 mg of NaCl were weighed into a 100 mL volumetric flask. Purified water was added to complete dissolution, followed by addition of 55.44 µL of 50% NaOH solution, and the pH was adjusted to 6.5 using 1M HCl or 1M NaOH solution. Purified water was added to make up to volume. 110 mg of SIF powder was then weighed into a 50 mL volumetric flask, added with the above solution to complete dissolution and make up to volume.
(§5) 0.82 mL of glacial acetic acid and 1.18 g of NaCl were added to a 100 mL volumetric flask. Purified water was added to complete dissolution, followed by addition of 528 µL of 50% NaOH solution, and the pH was adjusted to 5.0 using 1M HCl or 1M NaOH solution. Purified water was added to make up to volume. 560 mg of SIF powder was then weighed into a 50 mL volumetric flask, added with the above solution to complete dissolution and make up to volume.

[3] = Solid-state stability (XRPD and HPLC after open storage); type: physicochemical; conditions: for Crystal form: XRPD
Experimental: The purity test, dynamic solubility test, and stability test in the assay were measured using an Agilent 1260 high-performance liquid chromatograph, and the salt formation molar ratio of ions was tested by ion chromatography, and the analytical conditions are shown in Table 19 and Table 20. Table 19 High-performance liquid chromatography test conditions

[4] = Variable humidity XRPD (VH-XRPD); type: physicochemical
From the text: (§1) The XRPD pattern was collected on an X-ray powder diffraction analyzer produced by PANalytacal, and the scanning parameters are shown in Table 16. Table 16 XRPD test parameters
Under low-humidity conditions (e.g., 30% RH), the sample reverts to the anhydrous crystal form A of the fumarate salt.

[5] = Heating / variable temperature XRPD (VT-XRPD), crystal form conversion; type: physicochemical
Experimental: as §1
The free form crystal form B sample was obtained by dissolving the compound of Formula I in MeOH, removing the solvent by rotary evaporation under reduced pressure, and then transferring the resulting gel-like sample for vacuum drying at 50°C. The XRPD and TGA/DSC characterization results are shown in FIGS. 4-6, and the XRPD diffraction peak data of the free form crystal form B are shown in Table 23. […] The TGA weight loss of the free form crystal form B is low, and the free form crystal form B is an anhydrous crystal form.
Combined with the TGA/DSC and ^1H NMR results of the crystal form A of the phosphate salt, the crystal form A of the phosphate salt was a hydrate, which dehydrated under heating conditions and converted to anhydrous crystal form B of the phosphate salt.

Experimental for physchem: as §2, §3, §4, §5

SMILES	S: solubility ([2]; FaSSIF, 1 hour, 60 min)	S: solubility ([2]; FaSSIF, 4 hours, 240 min)	S: solubility ([2]; FaSSIF, 24 hours, 1440 min)	S: solubility ([2]; H2O, 1 hour, 60 min)	S: solubility ([2]; H2O, 4 hours, 240 min)	S: solubility ([2]; H2O, 24 hours, 1440 min)	pH ([2]; FaSSIF, 1 hour)	pH ([2]; FaSSIF, 4 hours)	pH ([2]; FaSSIF, 24 hours)	pH ([2]; FeSSIF, 1 hour)	pH ([2]; H2O, 1 hour)	pH ([2]; H2O, 4 hours)	pH ([2]; H2O, 24 hours)	pH ([2]; SGF, 1 hour)	pH ([2]; SGF, 4 hours)	pH ([2]; SGF, 24 hours)	Purity (area%) ([3]; 25°C/60%RH/open, 1 week)	Relative to initial (%) ([3]; 25°C/60%RH/open, 1 week)	Crystal form ([3]; 25°C/60%RH/open, 1 week)	Purity (area%) ([3]; 40°C/75%RH/open, 1 week)	other results
Cc1cc(OCCN2C[C@H]3COC[C@H]3C2)ccc1-c1ccc(CC(=O)NCc2ccccc2)nc1 [Crystal form A of benzenesulfonate salt]	3980 µg/mL	3640 µg/mL	3550 µg/mL	8290 µg/mL	8390 µg/mL	8120 µg/mL	6.1	6.1	6.1	4.9	5.6	5.6	5.6	3.4	3.5	3.5	97.61 area%	99.8%	Crystal form A of benzenesulfonate salt	97.61 area%	hygroscopicity ([1]; listed as crystal form A of the benzenesulfonate salt): slightly hygroscopic; S: solubility ([2]; FeSSIF, 1 hour, 60 min): 3150 µg/mL; S: solubility ([2]; FeSSIF, 4 hours, 240 min): 2890 µg/mL; S: solubility ([2]; FeSSIF, 24 hours, 1440 min): 2910 µg/mL; S: solubility ([2]; SGF, 1 hour, 60 min): 9940 µg/mL; S: solubility ([2]; SGF, 4 hours, 240 min): 9950 µg/mL; S: solubility ([2]; SGF, 24 hours, 1440 min): 9700 µg/mL; pH ([2]; FeSSIF, 4 hours): 4.9; pH ([2]; FeSSIF, 24 hours): 4.9; Relative to initial (%) ([3]; 40°C/75%RH/open, 1 week): 99.8%; Crystal form ([3]; 40°C/75%RH/open, 1 week): Crystal form A of benzenesulfonate salt; Purity (area%) ([3]; Initial): 97.78 area%
Cc1cc(OCCN2C[C@H]3COC[C@H]3C2)ccc1-c1ccc(CC(=O)NCc2ccccc2)nc1 [Crystal form A of fumarate salt]	8720 µg/mL	8940 µg/mL	8240 µg/mL	9440 µg/mL	9720 µg/mL	9380 µg/mL	4.3	4.4	4.4	4.6	4.0	4.0	4.0	3.4	3.4	3.4	97.02 area%	100.0%	Crystal form A of fumarate salt	97.09 area%	hygroscopicity ([1]; listed as crystal form A of the fumarate salt): significantly hygroscopic above 70% RH; weight change in DVS test ([1]; high-humidity conditions (>70% RH)): significant weight gain; pH ([2]; FeSSIF, 4 hours): 4.6; pH ([2]; FeSSIF, 24 hours): 4.6; solubility at 1 h (physchem; fessif): 3630 µg/mL; solubility at 4 h (physchem; fessif): 3600 µg/mL; solubility at 24 h (physchem; fessif): 3610 µg/mL; solubility at 1 h (physchem; sgf): 9650 µg/mL; solubility at 4 h (physchem; sgf): 9820 µg/mL; solubility at 24 h (physchem; sgf): 9170 µg/mL; Relative to initial (%) ([3]; 40°C/75%RH/open, 1 week): 100.1%; Crystal form ([3]; 40°C/75%RH/open, 1 week): Crystal form A of fumarate salt; Purity (area%) ([3]; Initial): 96.99 area%; XRPD change at high humidity ([4]; placed at 85% RH): shift in diffraction peaks; crystal form after return to low humidity ([4]; returned to 30% RH): converted back to the crystal form A of the fumarate salt
Cc1cc(OCCN2C[C@H]3COC[C@H]3C2)ccc1-c1ccc(CC(=O)NCc2ccccc2)nc1 [Crystal form A of phosphate salt]	6630 µg/mL	6320 µg/mL	6140 µg/mL	9830 µg/mL	9650 µg/mL	9120 µg/mL	5.9	5.9	5.9	4.9	5.3	5.4	5.3	3.4	3.4	3.4	97.84 area%	100.2%	Crystal form A of phosphate salt	97.55 area%	hygroscopicity ([1]; listed as crystal form A of the phosphate salt): rapidly dehydrates below 10% RH; S: solubility ([2]; FeSSIF, 1 hour, 60 min): 5130 µg/mL; S: solubility ([2]; FeSSIF, 4 hours, 240 min): 4120 µg/mL; S: solubility ([2]; FeSSIF, 24 hours, 1440 min): 3730 µg/mL; S: solubility ([2]; SGF, 1 hour, 60 min): 9140 µg/mL; S: solubility ([2]; SGF, 4 hours, 240 min): 9670 µg/mL; S: solubility ([2]; SGF, 24 hours, 1440 min): 9070 µg/mL; pH ([2]; FeSSIF, 4 hours): 4.9; pH ([2]; FeSSIF, 24 hours): 4.9; Relative to initial (%) ([3]; 40°C/75%RH/open, 1 week): 99.9%; Crystal form ([3]; 40°C/75%RH/open, 1 week): Crystal form A of phosphate salt; Purity (area%) ([3]; Initial): 97.62 area%; crystal form after heating ([5]; heating to 150°C under nitrogen, cooling to 30°C, exposing to air): conversion to free form crystal form B; crystal form after purging ([5]; purging under N2 for 20 min): remained unchanged
Cc1cc(OCCN2C[C@H]3COC[C@H]3C2)ccc1-c1ccc(CC(=O)NCc2ccccc2)nc1 [Crystal form B of oxalate salt]	9270 µg/mL	8890 µg/mL	8470 µg/mL	9650 µg/mL	9650 µg/mL	9360 µg/mL	4.2	4.2	4.2	4.7	3.8	3.8	3.9	3.1	3.1	3.1	97.49 area%	100.0%	Crystal form B of oxalate salt	97.52 area%	hygroscopicity ([1]; listed as crystal form B of the oxalate salt): slightly hygroscopic; S: solubility ([2]; FeSSIF, 1 hour, 60 min): 3800 µg/mL; S: solubility ([2]; FeSSIF, 4 hours, 240 min): 3660 µg/mL; S: solubility ([2]; FeSSIF, 24 hours, 1440 min): 3480 µg/mL; S: solubility ([2]; SGF, 1 hour, 60 min): 9990 µg/mL; S: solubility ([2]; SGF, 4 hours, 240 min): 9790 µg/mL; S: solubility ([2]; SGF, 24 hours, 1440 min): 9610 µg/mL; Relative to initial (%) ([3]; 40°C/75%RH/open, 1 week): 100.1%; Crystal form ([3]; 40°C/75%RH/open, 1 week): Crystal form B of oxalate salt; Purity (area%) ([3]; Initial): 97.47 area%
